Our source for the relative viability values is the supplement of paper PMC10307832.

Experiment in all cases: relative viability (nuclei count vs DMSO), 5 days (fraction); higher = more cells survive
Compound in assay [1]: CC[C@@H](C)CNCC(=O)N1CCC2=C([C@@H]1COC3=CC=CC(=C3)C)C=CS2 [RU-SKI 43] + N=C(N)NC(=N)NCCc1ccccc1 [Phenformin] (partner 250 µM)
A digest of the protocol:
(§1)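 Cells from lung cancer lines were seeded into 1536-well plates and, one day later, dosed by pin tool. Treatments were either a single drug or a fixed dose of an anchor drug with five library-drug doses (not always all listed) in √10 steps. After 5 days, nuclei were stained in a one-step fixation (final 0.05% Triton X-100, 1% formaldehyde, 1 ug/ml Hoechst) and counted on 4× images, and relative viability is the treated-to-vehicle nuclei ratio, as the median of duplicate plates.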

Compound in assay [2]: CCc1c2c(nc3ccc(OC(=O)N4CCC(N5CCCCC5)CC4)cc13)-c1cc3c(c(=O)n1C2)COC(=O)[C@]3(O)CC [Irinotecan] + CCNC(=O)c1noc(-c2cc(C(C)C)c(O)cc2O)c1-c1ccc(CN2CCOCC2)cc1 [Luminespib] (partner 0.01 µM)
A digest of the protocol: as §1

Compound in assay [3]: CCc1c2c(nc3ccc(OC(=O)N4CCC(N5CCCCC5)CC4)cc13)-c1cc3c(c(=O)n1C2)COC(=O)[C@]3(O)CC [Irinotecan] + C[C@@H](Oc1cc(-c2cnn(C3CCNCC3)c2)cnc1N)c1c(Cl)ccc(F)c1Cl [Crizotinib] (partner 1 µM)
The method, boiled down:
as §1

Compound in assay [4]: Cn1cc(-c2cnc3ccc4ccc(CS(=O)(=O)NCc5ccccn5)cc4c(=O)c3c2)cn1 [MK-8033] + CS(=O)(=O)CCNCc1ccc(-c2ccc3ncnc(Nc4ccc(OCc5cccc(F)c5)c(Cl)c4)c3c2)o1 [Lapatinib] (partner 2 µM)
The method, boiled down: as §1

In the case of HCC-827, the relative viability turned out to be 0.421 in assay [1] (first compound 0.1 µM); 0.422 in assay [1] (first compound 0.3162 µM); 0.372 in assay [1] (first compound 1 µM); 0.46 in assay [1] (first compound 3.162 µM); 0.359 in assay [1] (first compound 10 µM); 0.289 in assay [2] (first compound 0.6325 µM). In addition, the relative viability in assay [2] (first compound 2 µM) worked out at 0.501; in assay [2] (first compound 6.325 µM) it was 0.165; in assay [2] (first compound 20 µM) it was 0.104; in assay [3] (first compound 0.6325 µM), 0.487; in assay [3] (first compound 2 µM), 0.287; in assay [3] (first compound 6.325 µM) it was 0.282. In addition, the relative viability in assay [3] (first compound 20 µM) is 0.191; in assay [4] (first compound 0.02 µM), 0.195; in assay [4] (first compound 0.2 µM), 0.188; in assay [4] (first compound 0.6325 µM), 0.184; in assay [4] (first compound 2 µM) it was 0.218.

As for HOP-62, the relative viability in assay [1] (first compound 0.1 µM) stood at 0.688; in assay [1] (first compound 0.3162 µM), 0.547; in assay [1] (first compound 1 µM), 0.779; in assay [1] (first compound 3.162 µM), 0.789; in assay [1] (first compound 10 µM), 0.714; in assay [2] (first compound 0.6325 µM), 0.254. In addition, the relative viability in assay [2] (first compound 2 µM) was determined as 0.361; in assay [2] (first compound 6.325 µM), 0.203; in assay [2] (first compound 20 µM), 0.21; in assay [3] (first compound 0.6325 µM), 0.211; in assay [3] (first compound 2 µM) it was 0.108; in assay [3] (first compound 6.325 µM) it was 0.136. Further, the relative viability amounted to 0.159 in assay [3] (first compound 20 µM); 1.01 in assay [4] (first compound 0.02 µM); 0.753 in assay [4] (first compound 0.06325 µM); 0.786 in assay [4] (first compound 0.2 µM); 1.07 in assay [4] (first compound 0.6325 µM); 0.987 in assay [4] (first compound 2 µM).

With IA-LM, the relative viability in assay [3] (first compound 0.6325 µM) was found to be 0.774; in assay [3] (first compound 2 µM), 0.375; in assay [3] (first compound 6.325 µM), 0.195; in assay [3] (first compound 20 µM) it was 0.103; in assay [4] (first compound 0.02 µM) it was 0.682; in assay [4] (first compound 0.06325 µM), 0.636. The figures for the relative viability in assay [4] (first compound 0.2 µM), in assay [4] (first compound 0.6325 µM) and in assay [4] (first compound 2 µM) were 0.66, 0.633 and 0.773, respectively.

Take LC-2-ad: the relative viability in assay [1] (first compound 0.1 µM) stood at 0.578; in assay [1] (first compound 0.3162 µM), 0.628; in assay [1] (first compound 1 µM), 0.637; in assay [1] (first compound 3.162 µM), 0.527; in assay [1] (first compound 10 µM) it was 0.558; in assay [2] (first compound 0.6325 µM), 0.685. For the same cell line, the relative viability in assay [2] (first compound 2 µM) came to 0.542; in assay [2] (first compound 6.325 µM), 0.337; in assay [2] (first compound 20 µM), 0.233; in assay [3] (first compound 0.6325 µM), 0.359; in assay [3] (first compound 2 µM), 0.314; in assay [3] (first compound 6.325 µM) it was 0.258. Further, the relative viability in assay [3] (first compound 20 µM) stood at 0.186; in assay [4] (first compound 0.02 µM), 1.09; in assay [4] (first compound 0.06325 µM) it was 0.915; in assay [4] (first compound 0.2 µM), 0.877; in assay [4] (first compound 0.6325 µM), 1.11; in assay [4] (first compound 2 µM), 0.806.

With LCLC-97TM1, the relative viability in assay [1] (first compound 0.1 µM) amounted to 0.463; in assay [1] (first compound 0.3162 µM), 0.471; in assay [1] (first compound 1 µM), 0.422; in assay [1] (first compound 3.162 µM), 0.43; in assay [1] (first compound 10 µM), 0.384; in assay [2] (first compound 0.6325 µM), 0.228. In addition, the relative viability in assay [2] (first compound 2 µM) stood at 0.208; in assay [2] (first compound 6.325 µM), 0.148; in assay [2] (first compound 20 µM) it was 0.181; in assay [3] (first compound 0.6325 µM) it was 0.107; in assay [3] (first compound 2 µM), 0.208; in assay [3] (first compound 6.325 µM), 0.185. The relative viability in assay [3] (first compound 20 µM) was 0.239; in assay [4] (first compound 0.02 µM), 1.35; in assay [4] (first compound 0.06325 µM), 1.06; in assay [4] (first compound 0.2 µM) it was 0.656; in assay [4] (first compound 0.6325 µM), 0.957; in assay [4] (first compound 2 µM), 0.929.

In the case of LCLC-103H, the relative viability in assay [1] (first compound 0.1 µM) is 0.318; in assay [1] (first compound 0.3162 µM), 0.388; in assay [1] (first compound 1 µM) it was 0.435; in assay [1] (first compound 3.162 µM), 0.346; in assay [1] (first compound 10 µM) it was 0.343; in assay [2] (first compound 0.6325 µM), 0.83. Moreover, the relative viability in assay [2] (first compound 2 µM) came out at 0.502; in assay [2] (first compound 6.325 µM), 0.348; in assay [2] (first compound 20 µM), 0.501; in assay [3] (first compound 0.6325 µM), 0.834; in assay [3] (first compound 2 µM) it was 0.379; in assay [3] (first compound 6.325 µM), 0.397. Further, in assay [3] (first compound 20 µM), the relative viability worked out at 0.621.

With LK-2, the relative viability was found to be 0.484 in assay [1] (first compound 0.1 µM); 0.404 in assay [1] (first compound 0.3162 µM); 0.505 in assay [1] (first compound 1 µM); 0.811 in assay [1] (first compound 3.162 µM); 0.501 in assay [1] (first compound 10 µM); 0.162 in assay [2] (first compound 0.6325 µM). Further, the relative viability in assay [2] (first compound 2 µM) is 0.224; in assay [2] (first compound 6.325 µM), 0.264; in assay [2] (first compound 20 µM) it was 0.327; in assay [3] (first compound 0.6325 µM) it was 0.206; in assay [3] (first compound 2 µM), 0.248; in assay [3] (first compound 6.325 µM), 0.303. In addition, the relative viability in assay [3] (first compound 20 µM) is 0.301; in assay [4] (first compound 0.02 µM), 0.968; in assay [4] (first compound 0.06325 µM), 0.807; in assay [4] (first compound 0.2 µM), 0.963; in assay [4] (first compound 0.6325 µM) it was 1.1; in assay [4] (first compound 2 µM) it was 0.807.

In the case of LOU-NH91, the relative viability in assay [1] (first compound 0.1 µM) is 0.705; in assay [1] (first compound 0.3162 µM) it was 0.673; in assay [1] (first compound 1 µM), 0.733; in assay [1] (first compound 3.162 µM) it was 0.715; in assay [1] (first compound 10 µM) it was 0.666; in assay [2] (first compound 0.6325 µM) it was 0.371. In addition, the relative viability amounted to 0.323 in assay [2] (first compound 2 µM); 0.301 in assay [2] (first compound 6.325 µM); 0.28 in assay [2] (first compound 20 µM); 0.718 in assay [3] (first compound 0.6325 µM); 0.658 in assay [3] (first compound 2 µM); 0.368 in assay [3] (first compound 6.325 µM). For the same cell line, the relative viability in assay [3] (first compound 20 µM) came to 0.36; in assay [4] (first compound 0.02 µM) it was 0.785; in assay [4] (first compound 0.2 µM), 0.735; in assay [4] (first compound 0.6325 µM) it was 0.772; in assay [4] (first compound 2 µM), 0.745.

On to LU99A, for which the relative viability in assay [1] (first compound 0.1 µM) was 0.862; in assay [1] (first compound 0.3162 µM), 0.955; in assay [1] (first compound 1 µM) it was 0.863; in assay [1] (first compound 3.162 µM), 0.871; in assay [1] (first compound 10 µM) it was 0.654; in assay [2] (first compound 0.6325 µM) it was 0.174. The relative viability in assay [2] (first compound 2 µM) came to 0.184; in assay [2] (first compound 6.325 µM), 0.206; in assay [2] (first compound 20 µM) it was 0.207; in assay [3] (first compound 0.6325 µM), 0.281; in assay [3] (first compound 2 µM) it was 0.286; in assay [3] (first compound 6.325 µM) it was 0.251. Also, the relative viability in assay [3] (first compound 20 µM) was found to be 0.229; in assay [4] (first compound 0.02 µM) it was 1.03; in assay [4] (first compound 0.06325 µM), 0.892; in assay [4] (first compound 0.2 µM), 0.97; in assay [4] (first compound 0.6325 µM), 0.893; in assay [4] (first compound 2 µM), 0.764.
